Measurements published in the supplement of paper PMC11451515.

Tested on: P12-Ichikawa
Assay: cell viability relative to DMSO control; higher = less cytotoxic
Conditions: 48 h
In short: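 Library compounds in DMSO were pin-dosed in an 11-point threefold series (47 μM to 0.79 nM) onto leukemia cells in 1536-well plates (5 μl). Plates held 500 cells/well of NOMO1 or SEM or 1000 cells/well of P12-Ichikawa, each adapted for at least four passages in each medium. Luminescence was read with CellTiter-Glo One after 48 h at 37°C. Viability means the per-plate percentage relative to DMSO wells, using cell-free wells as background.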

[1] = HPLM + 10% dialyzed FBS, 0.000781 µM
[2] = HPLM + 10% dialyzed FBS, 0.00234 µM
[3] = HPLM + 10% dialyzed FBS, 0.00702 µM
[4] = HPLM + 10% dialyzed FBS, 0.0211 µM
[5] = HPLM + 10% dialyzed FBS, 0.0632 µM
[6] = HPLM + 10% dialyzed FBS, 0.19 µM
[7] = HPLM + 10% dialyzed FBS, 0.569 µM
[8] = HPLM + 10% dialyzed FBS, 1.71 µM
[9] = HPLM + 10% dialyzed FBS, 5.12 µM
[10] = HPLM + 10% dialyzed FBS, 15.4 µM
[11] = HPLM + 10% dialyzed FBS, 46.1 µM
[12] = RPMI 5 mM glucose + 10% FBS, 0.000781 µM
[13] = RPMI 5 mM glucose + 10% FBS, 0.00234 µM
[14] = RPMI 5 mM glucose + 10% FBS, 0.00702 µM
[15] = RPMI 5 mM glucose + 10% FBS, 0.0211 µM
[16] = RPMI 5 mM glucose + 10% FBS, 0.0632 µM
[17] = RPMI 5 mM glucose + 10% FBS, 0.19 µM
[18] = RPMI 5 mM glucose + 10% FBS, 0.569 µM
[19] = RPMI 5 mM glucose + 10% FBS, 1.71 µM
[20] = RPMI 5 mM glucose + 10% FBS, 5.12 µM
[21] = RPMI 5 mM glucose + 10% FBS, 15.4 µM
[22] = RPMI 5 mM glucose + 10% FBS, 46.1 µM
[23] = RPMI 5 mM glucose + 10% dialyzed FBS, 0.000781 µM
[24] = RPMI 5 mM glucose + 10% dialyzed FBS, 0.00234 µM
[25] = RPMI 5 mM glucose + 10% dialyzed FBS, 0.00702 µM
[26] = RPMI 5 mM glucose + 10% dialyzed FBS, 0.0211 µM
[27] = RPMI 5 mM glucose + 10% dialyzed FBS, 0.0632 µM
[28] = RPMI 5 mM glucose + 10% dialyzed FBS, 0.19 µM
[29] = RPMI 5 mM glucose + 10% dialyzed FBS, 0.569 µM
[30] = RPMI 5 mM glucose + 10% dialyzed FBS, 1.71 µM
[31] = RPMI 5 mM glucose + 10% dialyzed FBS, 5.12 µM
[32] = RPMI 5 mM glucose + 10% dialyzed FBS, 15.4 µM
[33] = RPMI 5 mM glucose + 10% dialyzed FBS, 46.1 µM

SMILES | cell viability [1] | cell viability [2] | cell viability [3] | cell viability [4] | cell viability [5] | cell viability [6] | cell viability [7] | cell viability [8] | cell viability [9] | cell viability [10] | cell viability [11] | cell viability [12] | cell viability [13] | cell viability [14] | cell viability [15] | cell viability [16] | cell viability [17] | cell viability [18] | cell viability [19] | cell viability [20] | cell viability [21] | cell viability [22] | cell viability [23] | cell viability [24] | cell viability [25] | cell viability [26] | cell viability [27] | cell viability [28] | cell viability [29] | cell viability [30] | cell viability [31] | cell viability [32] | cell viability [33]
CCNc1cc(NC2CCC(O)CC2)nc(Nc2ccc3c(ccn3Cc3ccccc3)c2)n1 (stereo unspecified) | 112% | 117% | 117% | 126% | 127% | 128% | 126% | 128% | 124% | 120% | 109% |  |  |  |  |  |  |  |  |  |  |  |  |  |  |  |  |  |  |  |  |  | 
C#Cc1cccc(Nc2ncnc3cc(OC)c(OCCCCCCC(=O)NO)cc23)c1 | 126% | 118% | 121% | 124% | 105% | 69.2% | 29.8% | 8.83% | 6.65% | 6.4% | 2.39% |  |  |  |  |  |  |  |  |  |  |  |  |  |  |  |  |  |  |  |  |  | 
O=C1NC(=O)/C(=C/c2cccc(C(F)(F)F)c2)S1 | 107% | 110% | 111% | 110% | 103% | 108% | 104% | 110% | 106% | 98% | 100% | 99.3% | 96.4% | 99.8% | 115% | 94.1% | 94.8% | 98.6% | 98.7% | 100% | 89.4% | 82.9% | 90.3% | 97.4% | 91.9% | 104% | 95.9% | 93.1% | 94.2% | 99.7% | 97.4% | 90.2% | 89.2%
O=C(CCCCCCC(=O)Nc1ccccc1)NO | 87.9% | 99.3% | 100% | 98.4% | 110% | 109% | 105% | 98.8% | 39% | 5.48% | 3.81% | 91.9% | 97% | 108% | 107% | 110% | 104% | 111% | 96.8% | 23.3% | 4.38% | 3.81% | 92.4% | 100% | 98.1% | 109% | 107% | 103% | 102% | 95.6% | 19.7% | 5.15% | 3.53%
CN(C)c1ccc2cc(C(=O)N[C@@H](CCCNC(=N)CCl)C(=O)NCc3ccccc3)ccc2c1 | 103% | 113% | 105% | 113% | 112% | 103% | 108% | 107% | 104% | 93.9% | 19% | 121% | 111% | 97.9% | 115% | 106% | 116% | 122% | 116% | 104% | 93% | 9.92% | 109% | 108% | 108% | 109% | 110% | 101% | 99.6% | 97.1% | 106% | 92% | 8.85%
CC(C)NCC(O)c1ccc(NS(C)(=O)=O)cc1 (stereo unspecified) | 104% | 113% | 96.3% | 105% | 117% | 111% | 104% | 108% | 98% | 102% | 100% | 109% | 102% | 99.9% | 105% | 97.9% | 110% | 106% | 112% | 101% | 98.7% | 101% | 101% | 102% | 100% | 98.6% | 97% | 94.3% | 99.2% | 91% | 91% | 99.2% | 96.6%
Cc1cc(O)c2c(c1)C(=O)c1cc(O)cc(O)c1C2=O | 99.9% | 107% | 99.6% | 104% | 110% | 103% | 110% | 105% | 95.3% | 94.2% | 100% | 100% | 99.2% | 107% | 96.4% | 108% | 104% | 99.1% | 103% | 102% | 90.6% | 86.6% | 91.5% | 92.2% | 88.8% | 97.7% | 99.8% | 97.1% | 96.4% | 90.8% | 97% | 94% | 84.8%
CN(C)c1ccc(Nc2nc(N)n(C(=O)c3c(F)cccc3F)n2)cc1 | 106% | 115% | 125% | 79.5% | 122% | 127% | 121% | 117% | 114% | 29.1% | 88.2% | 122% | 116% | 115% | 70% | 132% | 126% | 130% | 137% | 114% | 28.8% | 60.2% | 114% | 115% | 120% | 72.4% | 125% | 125% | 118% | 126% | 120% | 41.2% | 68.3%
COc1cc2ncnc(Nc3cccc(Br)c3)c2cc1OC | 88.8% | 101% | 103% | 100% | 97.6% | 105% | 110% | 98.4% | 102% | 111% | 106% | 87.9% | 97.6% | 105% | 103% | 108% | 107% | 117% | 99.8% | 114% | 112% | 106% | 95.9% | 91.5% | 106% | 104% | 114% | 112% | 113% | 109% | 109% | 112% | 105%
C[S+]([O-])c1ccc(-c2nc(-c3ccc(F)cc3)c(-c3ccncc3)[nH]2)cc1 (stereo unspecified) | 103% | 102% | 97.3% | 111% | 109% | 108% | 107% | 93.6% | 53.5% | 3.78% | 1.78% | 93.8% | 92.2% | 103% | 99% | 102% | 92.8% | 102% | 64.2% | 46.6% | 3.17% | 1.83% | 96.6% | 103% | 99.7% | 97.3% | 98.7% | 99.4% | 98.6% | 74.2% | 45.4% | 3.69% | 2.1%
Cc1cc(Cl)ccc1OCCCC(=O)NO | 102% | 105% | 105% | 116% | 106% | 105% | 101% | 98.6% | 78.3% | 15% | 3.84% | 97.8% | 102% | 108% | 110% | 101% | 98.2% | 99.4% | 81.2% | 57.9% | 17.4% | 3.91% | 113% | 104% | 108% | 111% | 111% | 102% | 100% | 35.9% | 37.2% | 5.67% | 3.42%
Cc1ccc(-c2ncn(-c3ccc(Nc4nccc(-c5cccc(N6CCOCC6)c5)n4)cc3)n2)cn1 | 93.9% | 94.5% | 94.8% | 98.2% | 96.1% | 90.7% | 5.93% | 5.41% | 5.42% | 4.29% | 4.16% | 92.2% | 92.8% | 90.2% | 89.8% | 94.5% | 83.6% | 3.59% | 3.74% | 2.21% | 3.15% | 3.43% | 82.2% | 87.5% | 80.8% | 86.6% | 87.6% | 96.3% | 3.87% | 3.59% | 2.81% | 2.93% | 2.94%
CC(C)(C)NC(=O)[C@H]1CC[C@H]2[C@@H]3CC[C@H]4NC(=O)\C=C/[C@]4(C)[C@H]3CC[C@]12C | 101% | 109% | 106% | 107% | 102% | 103% | 111% | 107% | 109% | 27.7% | 12.7% | 83.5% | 104% | 103% | 108% | 109% | 109% | 109% | 115% | 103% | 31.6% | 10.8% | 94.1% | 100% | 102% | 100% | 107% | 112% | 108% | 115% | 113% | 81.4% | 35.6%
Cc1cn(CCN2CCN(c3ccccc3-c3cc(C#N)cc(C(=O)NCCCN4CCCC4)c3)CC2)c2ccccc12 | 110% | 109% | 106% | 104% | 109% | 115% | 119% | 120% | 91.2% | 8.78% | 6.19% | 107% | 107% | 103% | 115% | 118% | 118% | 124% | 103% | 90.8% | 23.2% | 15.6% | 118% | 119% | 117% | 117% | 124% | 126% | 128% | 111% | 93% | 26.9% | 19.9%
CC(NCc1ccc2c(c1)[nH]/c(=N\C(=O)c1ccc(-c3cn[nH]c3)s1)n2CC(C)(C)O)C(C)(C)C (stereo unspecified) | 117% | 112% | 108% | 115% | 117% | 111% | 99.1% | 65% | 29.5% | 25.9% | 2.69% | 109% | 118% | 121% | 123% | 124% | 121% | 102% | 72.9% | 29.8% | 14.7% | 2.33% | 134% | 124% | 120% | 130% | 119% | 122% | 104% | 71% | 31.7% | 24.9% | 3.31%
CN(C)CCCNC(=O)c1ccc(-c2cc(O)c3ncccc3c2)cc1 | 102% | 102% | 106% | 107% | 106% | 111% | 93.9% | 104% | 101% | 95.2% | 82.6% | 95.7% | 97.4% | 101% | 104% | 111% | 89.6% | 93.3% | 95.5% | 92% | 99.8% | 63.6% | 92.3% | 97.9% | 96.8% | 97.5% | 103% | 95.1% | 98.5% | 90.6% | 83.4% | 100% | 71.1%
CCN(C)C(=O)Oc1cccc([C@H](C)N(C)C)c1 | 117% | 105% | 104% | 114% | 106% | 105% | 107% | 107% | 99.5% | 96.4% | 104% | 106% | 104% |  | 102% | 99.7% | 102% | 113% | 101% | 95.6% | 102% | 99.2% | 103% | 102% | 99.3% | 98.7% | 103% | 104% | 104% | 98.2% | 93.4% | 94.7% | 86.7%
